The results in this text go back to patent publication US9718788B2, “Heteroaryl compounds useful as inhibitors of E1 activating enzymes” (MILLENNIUM PHARMACEUTICALS, INC., priority 2006, dated 2017).

This assay deals with T1, recombinant human NAE enzyme (Homo sapiens, UniProt Q8TBC4).
T1 construct: His (N); made in house; host or cells: Sf9 insect cells (baculovirus, Bac-to-Bac)
T1 sequence (Q8TBC4 1-463): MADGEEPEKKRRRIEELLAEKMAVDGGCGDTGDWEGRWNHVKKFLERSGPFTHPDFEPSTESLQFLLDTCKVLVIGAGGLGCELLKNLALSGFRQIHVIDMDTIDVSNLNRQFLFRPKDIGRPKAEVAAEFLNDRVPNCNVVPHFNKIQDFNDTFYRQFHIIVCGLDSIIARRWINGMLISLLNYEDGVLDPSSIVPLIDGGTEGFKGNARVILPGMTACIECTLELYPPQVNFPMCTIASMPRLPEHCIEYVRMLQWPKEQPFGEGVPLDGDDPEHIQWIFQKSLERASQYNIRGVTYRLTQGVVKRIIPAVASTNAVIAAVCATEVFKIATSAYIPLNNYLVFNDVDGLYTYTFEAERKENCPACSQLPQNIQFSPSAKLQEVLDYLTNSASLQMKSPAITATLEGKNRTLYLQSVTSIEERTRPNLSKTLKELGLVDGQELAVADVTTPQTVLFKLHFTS
T1 sequence (Q13564 1-534 partner): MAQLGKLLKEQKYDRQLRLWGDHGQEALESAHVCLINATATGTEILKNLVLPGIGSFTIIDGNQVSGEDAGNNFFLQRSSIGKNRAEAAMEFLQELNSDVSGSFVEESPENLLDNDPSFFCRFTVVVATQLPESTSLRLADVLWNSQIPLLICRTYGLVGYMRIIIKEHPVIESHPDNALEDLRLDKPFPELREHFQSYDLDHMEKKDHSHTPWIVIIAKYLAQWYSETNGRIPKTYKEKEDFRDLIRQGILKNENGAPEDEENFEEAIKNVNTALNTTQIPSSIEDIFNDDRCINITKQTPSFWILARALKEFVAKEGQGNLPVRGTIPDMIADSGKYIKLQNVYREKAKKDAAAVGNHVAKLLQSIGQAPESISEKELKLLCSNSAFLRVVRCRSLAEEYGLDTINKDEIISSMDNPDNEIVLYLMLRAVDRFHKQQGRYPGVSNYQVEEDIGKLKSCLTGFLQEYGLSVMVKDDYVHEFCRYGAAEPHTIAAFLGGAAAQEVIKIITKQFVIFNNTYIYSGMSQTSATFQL
Briefly: Nedd8-Activating Enzyme (NAE) HTRF Assay. It is filed as biochemical. To be noted: 20 μM ATP. The method in brief: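 Recombinant human NAE (NAEα/His-NAEβ from Sf9 cells) at 0.20 nM with 20 μM ATP, 0.01 μM Ubc12-GST and 0.075 μM Nedd8-Flag in HEPES pH 7.5, 105 min at 24° C. EDTA stop; Eu-anti-FLAG/APC-anti-GST HTRF read after 1 h.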
For orientation: TR-FRET usually uses a lanthanide donor and a delayed reading to cut background.

What is called IC50 is the point on the concentration scale where inhibition reaches its midpoint.

As for `NS(=O)(=O)OC[C@@H]1C[C@@H](Nc2ncnc3nc(-c4ccc(OCc5ccccc5)cc4)[nH]c23)C[C@@H]1O` [Compound I-102, [(1S,2S,4R)-4-({8-[4-(benzyloxy)phenyl]-7H-purin-6-yl}amino)-2-hydroxycyclopentyl]methyl sulfamate], the IC50 (bound given in nM) was ≤ 500 nM.
The same measure, in the same setting: the figure for `CN(C)c1ccc(-c2nc3ncnc(O[C@@H]4C[C@@H](COS(N)(=O)=O)[C@@H](O)C4)c3[nH]2)c2ccccc12` [Compound I-103, [(1S,2S,4R)-4-({8-[4-(dimethylamino)-1-naphthyl]-7H-purin-6-yl}oxy)-2-hydroxycyclopentyl]methyl sulfamate] is ≤ 500 nM.
Regarding `OC[C@@H]1C[C@@H](Nc2ncnc3[nH]c(-c4cccc5c4CCCC5)nc23)C[C@@H]1O` [Compound I-110, (1S,2S,4R)-2-(hydroxymethyl)-4-{[8-(5,6,7,8-tetrahydronaphthalen-1-yl)-9H-purin-6-yl]-amino}cyclopentanol], the IC50 (bound given in nM) is > 500 nM and the IC50 (bound given in μM) is < 10000 nM.
For `NS(=O)(=O)OC[C@@H]1C[C@@H](Nc2ncnc3[nH]c(-c4ccc(Cl)cc4)nc23)C[C@@H]1O` [Compound I-111, ((1S,2S,4R)-4-{[8-(4-chlorophenyl)-9H-purin-6-yl]amino}-2-hydroxycyclopentyl)methyl sulfamate], the IC50 (bound given in nM) is ≤ 500 nM.
Still for that read-out and setting: to `NS(=O)(=O)OC[C@@H]1C[C@@H](Oc2ncnc3nc(-c4cncc5ccccc45)[nH]c23)C[C@@H]1O` [Compound I-112, {(1S,2S,4R)-2-hydroxy-4-[(8-isoquinolin-4-yl-7H-purin-6-yl)oxy]cyclopentyl}methyl sulfamate] belongs ≤ 500 nM.
Regarding `NS(=O)(=O)OC[C@H]1C[C@@H](Nc2nc(N[C@H]3CCc4ccccc43)ncc2F)[C@H](O)[C@@H]1O` [Compound I-113, [(1R,2R,3S,4R)-4-({2-[(1S)-2,3-dihydro-1H-inden-1-ylamino]-5-fluoropyrimidin-4-yl}-amino)-2,3-dihydroxycyclopentyl]methyl sulfamate], the IC50 (bound given in nM) is > 500 nM and the IC50 (bound given in μM) was < 10000 nM.
As to `NS(=O)(=O)OC[C@@H]1C[C@@H](Oc2cc(-c3ccccc3)ncn2)C[C@@H]1O` [Compound I-114, {(1S,2S,4R)-2-hydroxy-4-[(6-phenylpyrimidin-4-yl)oxy]cyclopentyl}methyl sulfamate], the IC50 is > 500 nM (bound given in nM) and < 10000 nM (bound given in μM).
Turning to `CO[C@H]1Cc2ccccc2[C@H]1Nc1cc(O[C@@H]2C[C@@H](COS(N)(=O)=O)[C@@H](O)C2)ncn1` [Compound I-115, {(1S,2S,4R)-2-hydroxy-4-[(6-{[(1R,2S)-2-methoxy-2,3-dihydro-1H-inden-1-yl]amino}pyrimidin-4-yl)oxy]cyclopentyl}methyl sulfamate], under “bound given in nM”, the IC50 was ≤ 500 nM.
Still for that read-out and setting: the figure for `NS(=O)(=O)OC[C@@H]1C[C@@H](Nc2ncnc3nc(-c4cccc5c4OCC5)[nH]c23)C[C@@H]1O` [Compound I-117, ((1S,2S,4R)-4-{[8-(2,3-dihydro-1-benzofuran-7-yl)-7H-purin-6-yl]amino}-2-hydroxycyclopentyl)methyl sulfamate] is ≤ 500 nM; for `NS(=O)(=O)OC[C@H]1C[C@@H](Nc2cc(Nc3cccc4c3CCCC4)ncn2)[C@H](O)[C@@H]1O` [Compound I-118, ((1R,2R,3S,4R)-2,3-dihydroxy-4-{[6-(5,6,7,8-tetrahydronaphthalen-1-ylamino)pyrimidin-4-yl]amino}cyclopentyl)methyl sulfamate] it is ≤ 500 nM.
On to `NS(=O)(=O)OC[C@@H]1C[C@@H](Oc2cc(OCc3cccc4ccccc34)ncn2)C[C@@H]1O` [Compound I-119, ((1S,2S,4R)-2-hydroxy-4-{[6-(1-naphthylmethoxy)pyrimidin-4-yl]oxy}cyclopentyl)methyl sulfamate], for which the IC50 is > 500 nM (bound given in nM) and < 10000 nM (bound given in μM).
For the compound `NS(=O)(=O)OC[C@@H]1C[C@@H](Oc2cc(N3Cc4ccccc4C3)ncn2)C[C@@H]1O` [Compound I-120, ((1S,2S,4R)-4-{[6-(1,3-dihydro-2H-isoindol-2-yl)pyrimidin-4-yl]oxy}-2-hydroxycyclopentyl)methyl sulfamate], the IC50 reads like this: (bound given in nM) > 500 nM; (bound given in μM) < 10000 nM.
Take `NS(=O)(=O)OC[C@@H]1C[C@@H](Nc2ncnc3[nH]c(C4CCCc5ccccc54)nc23)C[C@@H]1O` (stereo partly drawn) [Compound I-121, ((1S,2S,4R)-2-hydroxy-4-{[8-(1,2,3,4-tetrahydronaphthalen-1-yl)-9H-purin-6-yl]amino}cyclopentyl)methyl sulfamate]: the IC50 (bound given in nM) is ≤ 500 nM.
The same measure, in the same setting: the figure for `NS(=O)(=O)OC[C@@H]1C[C@@H](Nc2ncnc3[nH]c(-c4ccccc4C(F)(F)F)nc23)C[C@@H]1O` [Compound I-122, [(1S,2S,4R)-2-hydroxy-4-({8-[2-(trifluoromethyl)phenyl]-9H-purin-6-yl}amino)cyclopentyl]methyl sulfamate] is ≤ 500 nM.
Take `CN(c1ncnc2c1nc(-c1ccccc1)n2C)[C@@H]1C[C@@H](COS(N)(=O)=O)[C@@H](O)C1` [Compound I-123, {(1S,2S,4R)-2-hydroxy-4-[methyl(9-methyl-8-phenyl-9H-purin-6-yl)amino]cyclopentyl}-methyl sulfamate]: the IC50 (bound given in nM) was > 500 nM and the IC50 (bound given in μM) was < 10000 nM.
With `CC1(C)C[C@H](Nc2cc(O[C@@H]3C[C@@H](COS(N)(=O)=O)[C@@H](O)C3)ncn2)c2ccccc21` [Compound I-124, {(1S,2S,4R)-4-[(6-{[(1S)-3,3-dimethyl-2,3-dihydro-1H-inden-1-yl]amino}pyrimidin-4-yl)oxy]-2-hydroxycyclopentyl}methyl sulfamate], the IC50 (bound given in nM) was ≤ 500 nM.
Still for that read-out and setting: the figure for `CO[C@H]1Cc2ccccc2[C@H]1Nc1ncnc(N[C@@H]2C[C@@H](COS(N)(=O)=O)[C@@H](O)C2)n1` [Compound I-125, {(1S,2S,4R)-2-hydroxy-4-[(4-{[(1R,2S)-2-methoxy-2,3-dihydro-1H-inden-1-yl]amino}-1,3,5-triazin-2-yl)amino]cyclopentyl}methyl sulfamate] is ≤ 500 nM; for `NS(=O)(=O)OC[C@@H]1C[C@@H](Nc2ncnc3[nH]c(-c4cccc5c4CCCC5)nc23)C[C@@H]1O` [Compound I-126, ((1S,2S,4R)-2-hydroxy-4-{[8-(5,6,7,8-tetrahydronaphthalen-1-yl)-9H-purin-6-yl]amino}cyclopentyl)methyl sulfamate] it is ≤ 500 nM.
On to `NS(=O)(=O)OC[C@@H]1C[C@@H](Oc2cc(NC3CCCC3)ncn2)C[C@@H]1O` [Compound I-127, ((1S,2S,4R)-4-{[6-(cyclopentylamino)pyrimidin-4-yl]oxy}-2-hydroxycyclopentyl)methyl sulfamate], for which the IC50 runs as follows: (bound given in nM) > 500 nM; (bound given in μM) < 10000 nM.
Turning to `NS(=O)(=O)OC[C@@H]1C[C@@H](Nc2ncnc3[nH]c(C4CCCCC4)nc23)C[C@@H]1O` [Compound I-128, {(1S,2S,4R)-4-[(8-cyclohexyl-9H-purin-6-yl)amino]-2-hydroxycyclopentyl}methyl sulfamate], the IC50 (bound given in nM) is ≤ 500 nM.
The same measure, in the same setting: to `NS(=O)(=O)OC[C@@H]1C[C@@H](Oc2ncnc3nc(-c4cnn(Cc5ccccc5)c4)[nH]c23)C[C@@H]1O` [Compound I-129, ((1S,2S,4R)-4-{[8-(1-benzyl-1H-pyrazol-4-yl)-7H-purin-6-yl]oxy}-2-hydroxycyclopentyl)methyl sulfamate] belongs ≤ 500 nM.
